According to US6448431B1, “Production of aryl carboxylate esters” (priority 1999, dated 2002):

What was measured:
[1] = cited from earlier work
[2] = Solubility of NOBS in selected solvents; format: physicochemical; details: 23° C., grams of NOBS soluble in 100 grams of solution
Source text: The solvent properties of TFA are unique and highly advantageous in the synthesis of phenolsulfonate esters. […] It is notable that the only solvent in which NOBS is more soluble than water is TFA. I have found no better solvent for NOBS than TFA. This is surprising. […] It is likely that hydrogen bonding in TFA facilitates the solvation of sulfonate anions but it is notable, in contrast, that such effects are much weaker in acetic acid. Furthermore, while it is known in the art that dimethyl sulfoxide (DMSO) and dimethylformamide (DMF) are relatively good solvents for benzenesulfonate esters they are much weaker solvents than TFA and because TFA has a much lower boiling point than these dipolar aprotic solvents it is the only good solvent for benzenesulfonate esters which can be readily stripped from product solutions and then purified and recycled with relative ease.

Row | Compound | Aqueous pKa [1] | Solubility of NOBS, wt % NOBS ([2]; solvent DMF) [wt %] | Solubility of NOBS, wt % NOBS ([2]; solvent DMSO) [wt %] | Solubility of NOBS, wt % NOBS ([2]; solvent NMP) [wt %] | Solubility of NOBS, wt % NOBS ([2]; solvent TFA) [wt %] | Solubility of NOBS, wt % NOBS ([2]; solvent acetic acid) [wt %] | Solubility of NOBS, wt % NOBS ([2]; solvent acetone) [wt %] | Solubility of NOBS, wt % NOBS ([2]; solvent acetonitrile) [wt %] | Solubility of NOBS, wt % NOBS ([2]; solvent nonanoic acid) [wt %] | Solubility of NOBS, wt % NOBS ([2]; solvent water) [wt %]
1 | O=C(O)C(F)(F)F [CF3CO2H, trifluoroacetic acid] | 0.22 |  |  |  |  |  |  |  |  | 
2 | CCCCCCCCC(=O)Oc1ccc(S(=O)(=O)[O-])cc1.[Na+] [NOBS, sodium 4-(nonanoyloxy)benzenesulfonate] |  | 10.1 | 15.9 | 8.4 | 23.4 | 1.7 | 0.02 | 0.01 | 0.03 | 22.8
